Key:
[1] = system: maturation reaction (3′-processing); assay: Effect of INSTI on the maturation reaction (3′-processing) in infected cells (Example 4); format: cell-based, HIV-1; settings: for effect on the maturation step: 500 nM inhibitor; for maturation efficacy: 2.5 μM inhibitor
Text: Quantification of 3′ non-mature and mature linear forms of the DNA of HIV-1 by LM-PCR. The strategy used in order to quantify the linear viral DNA is based on the ligation of a linking oligonucleotide (or “linker”) at the ends of the viral ends followed by two PCRs according to the protocol of Pierson et al. (Pierson et al. (2002) Journal of Virology 17:8518-8531). Major improvements have been made in order to implement an approach of quantitative PCR type.

[2] = system: maturation (3′-processing) of the linear viral DNA of HIV-1 in CEM cells; assay: Quantification of mature and non-mature linear viral DNA by LM-PCR after infection of CEM cells; format: cell-based
[3] = system: integration of HIV-1 viral DNA in infected cells; assay: Quantification of integrated viral DNA by Alu-PCR in infected cells; format: cell-based; settings: WT virus, 500 nM raltegravir, FIG. 3D
Text: (§1) The bands at 2-LTR are amplified by the primers flanking the LTR-LTR junction (HIVF and HIVR1 primers) (Brussel & Sonigo (2003) Journal of Virology 77:10119-10124). The viral DNA integrated is quantified by Alu-PCR (Brussel & Sonigo (2003) Journal of Virology 77:10119-10124). The U5-gag sequences, the 2-LTR junctions as well as the specific amplification of the integrated DNA are amplified in duplicate starting from 1/50 of the extraction of cell DNA. The number of copies is normalized per μg of DNA by measuring the quantity of β-globin gene in 1/50 of the DNA extract (Table 1).

viral integration = assay: Inhibition of viral integration by INSTI (Example 4); format: cell-based, HIV-1; settings: for IC50: Human immunodeficiency virus 1, read-out: IC50 for inhibition of viral integration
[4] = system: maturation reaction in primary CD4+ T lymphocytes infected with Δenv virus of wild-type; assay: Efficacy of maturation during infection of primary CD4+ T lymphocytes; format: cell-based, HIV-1; settings: 5 μM inhibitor
Text: In addition, the accumulation kinetics of the 1-LTR and 2-LTR bands are similar in the primary cells with respect to cells of cellular line.

maturation reaction = assay: Confirmation of the effect on maturation with a radiolabeled probe derived from the PCR; format: cell-based, HIV-1; settings: 5 μM inhibitor
Text: The different effects of each of the inhibitors on the maturation reaction were confirmed with the aid of a radiolabeled probe derived from the PCR.

[5] = system: 2-LTR or 1-LTR bands of HIV-1 viral DNA; assay: Accumulation of 2-LTR and 1-LTR bands with INSTI (Example 4); format: cell-based; settings: for 2 LTR bands as share of the viral forms: 500 nM to 5 μM, 48 h post-infection; for accumulation of 2-LTR or 1-LTR bands on varying the concentration: from 500 nM to 5 μM
Description: Quantification of the 1-LTR bands. The quantifications were carried out by real-time PCR on a Light Cycler apparatus (Roche Diagnostics, Meylan, France) with the aid of the second derivative method provided with the Light Cycler quantification software, version 3.5 (Roche Diagnostics). The number of DNA copies of the 1-LTR bands was determined by quantifying the viral molecules with the aid of primers which hybridize to the genes gag and env, as well as to hybridization probes. The reaction mixtures contain 1× LightCycler FastStart DNA master HybProbes buffer (Roche Diagnostics reference 12239272001), 4 mM MgCl2, 300 nM of 1-LTR LA1 primers (5′-[…]-3′, SEQ ID NO: 1) and 1-LTR LA16 (5′-[…]-3′, SEQ ID NO: 2) and 200 nM of LTR FL* hybridization probes (5′-[…]^a-3′, SEQ ID NO: 3) and LTR LC*(5′-[…]^b-3′, SEQ ID NO: 4) (^aFluorescein at the 3′ end; ^bLC red 640 at the 5′ end and phosphorylated at the 3′ end) in a final volume of 20 μl. The conditions of the PCR cycles for the quantification of the 1-LTR bands are the following: denaturation step for 8 min followed by 40 cycles (95° C. for 10 s, 60° C. for 10 s, and 72° C. for 25 s). The number of copies of 1-LTR bands was determined by reference to a calibration curve prepared by amplifying quantities ranging from 100 to 10^5 copies of p1-LTR.
as §1

recombinant integrase = target: T1, recombinant integrase (Human immunodeficiency virus type 1 group M subtype B, UniProt P12497); assay: In vitro maturation reaction with recombinant integrase; format: biochemical, HIV-1
T1 construct: with the aid of recombinant integrase

SMILES	effect on the maturation step [1]	maturation activity / maturation efficacy ([1]; 5 μM inhibitor) [%]	quantity of linear viral DNA (mature and non-mature), compared with WT ([2]; 500 nM raltegravir, achieved 8 hours post-infection)	quantity of mature viral DNA with or without raltegravir ([2]; WT virus, 500 nM raltegravir)	detection of integrated viral DNA [3]	lowest concentration completely inhibiting viral integration (viral integration) [nM]	IC50 (viral integration) [nM]	efficacy of the maturation reaction influenced or not [4]	percentage of mature viral DNA ([2]; wild-type integrase virus, 20 μM FZ41 at the time of infection, 20 hours post-infection (75% without compound)) [%]	maturation efficacy [1]	effect on maturation (maturation reaction)	2 LTR bands as share of the viral forms [5] [%]	accumulation of 2-LTR or 1-LTR bands on varying the concentration [5]	IC50 (recombinant integrase) [nM]
Cc1nnc(C(=O)NC(C)(C)c2nc(C(=O)NCc3ccc(F)cc3)c(O)c(=O)n2C)o1 [RAL, raltegravir]	not affected	80	the same	similar	inhibition of the detection of integrated viral DNA	500	8	not						
COc1cc(/C=C/c2ccc3ccc(C(=O)O)c(O)c3n2)cc(O)c1O [FZ41]									28					
C[C@@H]1CCO[C@H]2Cn3cc(C(=O)NCc4ccc(F)cc4F)c(=O)c(O)c3C(=O)N12 [DTG, dolutegravir]	not affected					500	2	influenced		approximately 40%	significantly inhibit maturation	~40	does not lead to an increase	2000
COc1cc2c(cc1Cc1cccc(Cl)c1F)c(=O)c(C(=O)O)cn2[C@H](CO)C(C)C [EVG, elvitegravir]	not affected					500	2	influenced		approximately 40%	significantly inhibit maturation	~40	does not lead to an increase	

From patent publication US20150232954A1, “Method for quantifying different viral forms of the DNA of the HIV virus” (UNIVERSITE PARIS DIDEROT - PARIS 7, priority 2012, published 2015)
